Like-named read-outs stand apart in the source and are kept apart here.
Assays:
Factor XIa = Factor XIa (Homo sapiens, UniProt P03951); test: Factor XIa inhibition assay utilizing a fluorophore-quencher pair peptide substrate (FLINT); type: biochemical; details: for Ki: read-out: FXIa Ki; for IC50: read-out: FXIa IC50
Source text: Biological Example 1: Factor XIa Inhibition Assay Utilizing a Fluorophore-Quencher Pair Peptide Substrate
A fluorescence intensity (FLINT) based assay was used to monitor inhibition of Factor XIa. The peptide substrate, 5Fam-KLTRAETV-K5Tamra (purchased from New England Peptide) was chosen based on the FXI sequence. Conversion of zymogen FXI to its activated form, FXIa, occurs by proteolytic cleavage by […] at two sites, Arg146 and Arg180. The custom peptide used in this assay was based on the Arg146 cleavage site of FXI. The peptide substrate was designed with a fluorophore-quencher pair, where the fluorescence is quenched until FXIa cleaves the 8-mer peptide after the Arg residue.
The Factor XIa FLINT assay was used with the following 5Fam-KLTRAETV-K5Tamra assay buffer: 50 mM Tris, pH 7.5, 100 mM NaCl, 5 mM CaCl2), 0.1 mg/mL BSA, 0.03% CHAPS. Assay buffer was prepared by mixing all ingredients fresh. 5Fam-KLTRAETV-K5Tamra peptide substrate was first prepared at 10 mM in 100% DMSO, then diluted to 3 mM in 100% DMSO. Assay buffer was then added directly to the 3 mM stock of substrate to prepare the 30 μM 2× working concentration (15 μM final concentration). The 2× Factor XIa stock solution was prepared by diluting 6.562 μM stock in 1× assay buffer for a […].
Test compound(s) were run in an 11-point, 3-fold serial dilution with a final top compound concentration of 100 nM. Final DMSO in assay was 2%. FXIa was preincubated with compound for 30-minutes and then substrate was added to initiate the reaction. The assay was run with kinetic (KIN) reads at 5 min intervals over 30 minutes. The time course was linear using […] FXIa greater than 30 minutes. More specifically, the assay was run as follows: • 100 nL of 0.01 mM test compound was dispensed into black 384-well non-binding Greiner BioOne 784900 plate for 0.1 μM final concentration; • 5 μL of 1× assay buffer was dispensed to column 24 (low control) and 5 μL 2× Factor XIa solution was dispensed to columns 1-23 (column 23 high control); • the plate was centrifuged with a “cover” plate at 500 rpm for 1 min • the plate was pre-incubated for 30 minutes at room temperature with plate covered; • 5 μL of 2×5Fam-KLTRAETV-K5Tamra peptide substrate was dispensed into the entire plate, columns 1-24; • the plate was centrifuged with a “cover” plate at 500 rpm for 1 min; • the plate was read monitoring fluorescence intensity on the BMG PHERAStar at room temperature, using fluorescence module 485 nm/520 nm.
Percent inhibition (IC50) curves were generated per compound tested, and data was analyzed using a 4-parameter logistic fit using GeneData Screener. The relative fluorescence unit (RFU) values were normalized to percent inhibition using the following equation: % inhibition=((HC−LC)−(compound−LC)/(HC−LC))*100
where LC−low control=mean signal of no Factor XIa or 100% inhibition of Factor XIa; HC−high control=mean signal of Factor XIa+5Fam-KLTRAETV-K5Tamra peptide substrate with DMSO only.
An 11-point dose response curve for the test compound(s) was generated using GENDATA to determine IC50 value based on the following equation: Y=Bottom+(Top−Bottom)/(1+10^((log IC50−X)*HillSlope))
where Y is the % inhibition in the presence of X inhibitor concentration, Top=high control=mean signal of Factor XIa+5Fam-KLTRAETV-K5Tamra peptide substrate with DMSO only; Bottom=low control−mean signal of no Factor XIa or 100% inhibition of Factor XIa; HillSlope−Hill coefficient; and IC50=concentration of compound with 50% inhibition in relation to top/high control.
(§1) Representative compounds of formula (I) of the present invention were tested according to the procedure described in Biological Example 1 and Biological Example 2 above, with results as listed in Table 3, below.

human plasma kallikrein = human plasma kallikrein (Homo sapiens, UniProt P03952); test: Kallikrein inhibition assay utilizing a quenched AMC peptide substrate (FLINT); type: biochemical; details: 30 min preincubation, 50 μM Z-Gly-Pro-Arg-AMC, 2 nM kallikrein
Source text: Biological Example 2: Kallikrein Inhibition Assay Utilizing a Quenched AMC Peptide Substrate
A fluorescence intensity (FLINT) based assay was used to monitor inhibition of human plasma kallikrein. The peptide substrate, Z-Gly-Pro-Arg-AMC (Purchased from Bachem; Catalog #1-1150) was chosen based on its relatively low KM for kallikrein which enables running the assay at lower substrate concentrations to control background fluorescence.
The Kallikrein FLINT assay was used with the following Z-Gly-Pro-Arg-AMC assay buffer: 50 mM Tris, pH 7.5, 100 mM NaCl, 5 mM CaCl2), 0.1 mg/mL BSA, 0.03% CHAPS. Assay buffer was prepared by mixing all ingredients fresh. 2× Z-Gly-Pro-Arg-AMC peptide substrate was prepared by diluting 10 mM stock into 1× assay buffer for a 100 μM working concentration (50 μM final concentration). The 2× kallikrein stock solution was prepared by diluting 14.76 μM stock in 1× assay buffer for a 4 nM working stock solution (2 nM final concentration).
Test compound(s) were run in an 11-point, 3-fold serial dilution with a final top compound concentration of 1 μM. Final DMSO in assay was 2%. Plasma kallikrein was pre-incubated for 30-minute with compound and then 50 μM substrate was added to initiate the reaction. The assay was run with kinetic (KIN) reads at 5 min intervals over 30 minutes. The time course was linear using 2 nM kallikrein greater than 30 minutes. More specifically, the assay was run as follows: • 100 nL of 0.1 mM test compound was dispensed into black 384-well non-binding Greiner BioOne 784900 plate for 1 μM final concentration; • 5 μL of 1× assay buffer was dispensed to columns 24 (low control) and 5 μL 2× human kallikrein enzyme solution was dispensed to columns 1-23 (column 23 high control); • the plate was centrifuged with a “cover” plate at 500 rpm for 1 min • the plate was pre-incubated for 30 minutes at room temperature with plate covered; • 5 μL of 2× Z-Gly-Pro-Arg-AMC peptide substrate was dispensed into the entire plate, columns 1-24; • the plate was centrifuged with a “cover” plate at 500 rpm for 1 min; the plate was read monitoring fluorescence intensity on the BMG PHERAStar at room temperature, using fluorescence module 340 nm/440 nm.
Percent inhibition (IC50) curves were generated per compound tested, and data was analyzed using a 4-parameter logistic fit using GeneData Screener. The relative fluorescence unit (RFU) values were normalized to percent inhibition using the following equation: % inhibition=((HC−LC)−(compound−LC)/(HC−LC))*100 where LC—low control=mean signal of human kallikrein enzyme or 100% inhibition of human kallikrein enzyme; HC—high control=mean signal of […]+Z-Gly-Pro-Arg-AMC peptide substrate with DMSO only.
An 11-point dose response curve for the test compound(s) was generated using GENDATA to determine IC50 value based on the following equation: Y=Bottom+(Top−Bottom)/(1+10^((log IC50−X)*HillSlope)) • where Y is the % inhibition in the presence of X inhibitor concentration, Top=high control=mean signal of human kallikrein enzyme+Z-Gly-Pro-Arg-AMC peptide substrate with DMSO only; Bottom=low control−mean signal of no human kallikrein enzyme or 100% inhibition of human kallikrein enzyme; HillSlope—Hill coefficient; and IC50=concentration of compound with 50% inhibition in relation to top/high control.
as §1

[1] = cells that print μM themselves in the nM column
[2] = cells that print μM themselves in the nM column, same assay conditions
[3] = 30 min preincubation, 5Fam-KLTRAETV-K5Tamra substrate 15 μM final, kinetic reads

Chain of Factor XIa (P03951 388-625 limits assumed): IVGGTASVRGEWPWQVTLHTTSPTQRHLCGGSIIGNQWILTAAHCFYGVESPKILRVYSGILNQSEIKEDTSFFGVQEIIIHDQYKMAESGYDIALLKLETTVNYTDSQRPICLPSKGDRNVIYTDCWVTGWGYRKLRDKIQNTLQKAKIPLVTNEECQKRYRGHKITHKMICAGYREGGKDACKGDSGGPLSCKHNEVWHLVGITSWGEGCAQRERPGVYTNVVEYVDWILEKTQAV
Chain of Factor XIa (P03951 19-387 partner limits assumed): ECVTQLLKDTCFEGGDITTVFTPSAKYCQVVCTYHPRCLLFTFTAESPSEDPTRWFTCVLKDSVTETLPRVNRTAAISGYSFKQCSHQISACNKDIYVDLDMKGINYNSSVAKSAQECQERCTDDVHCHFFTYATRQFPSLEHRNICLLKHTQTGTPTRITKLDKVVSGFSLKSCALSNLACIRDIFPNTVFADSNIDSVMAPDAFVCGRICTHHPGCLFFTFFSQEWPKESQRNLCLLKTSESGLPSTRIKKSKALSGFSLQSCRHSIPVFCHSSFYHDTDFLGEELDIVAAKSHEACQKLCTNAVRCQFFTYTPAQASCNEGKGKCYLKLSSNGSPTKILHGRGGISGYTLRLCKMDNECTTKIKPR
Chain of human plasma kallikrein (P03952 391-638 limits assumed): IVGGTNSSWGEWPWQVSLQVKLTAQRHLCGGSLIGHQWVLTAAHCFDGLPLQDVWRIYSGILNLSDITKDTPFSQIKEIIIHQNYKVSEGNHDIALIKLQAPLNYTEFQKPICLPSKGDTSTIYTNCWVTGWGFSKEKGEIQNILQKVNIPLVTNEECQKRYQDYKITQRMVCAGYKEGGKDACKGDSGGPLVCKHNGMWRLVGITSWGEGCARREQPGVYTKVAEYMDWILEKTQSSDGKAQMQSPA
Chain of human plasma kallikrein (P03952 20-390 partner limits assumed): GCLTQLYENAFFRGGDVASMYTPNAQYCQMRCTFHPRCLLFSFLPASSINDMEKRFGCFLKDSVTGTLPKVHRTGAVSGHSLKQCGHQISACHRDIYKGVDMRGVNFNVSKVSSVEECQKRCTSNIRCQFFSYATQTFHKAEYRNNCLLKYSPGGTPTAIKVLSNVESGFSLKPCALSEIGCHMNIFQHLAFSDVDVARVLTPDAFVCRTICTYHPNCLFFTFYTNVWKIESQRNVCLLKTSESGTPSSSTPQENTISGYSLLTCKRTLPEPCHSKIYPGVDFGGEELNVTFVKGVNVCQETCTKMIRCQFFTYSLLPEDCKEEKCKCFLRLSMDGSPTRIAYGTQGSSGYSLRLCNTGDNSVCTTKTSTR

SMILES | Ki (Factor XIa; [1]) [µM] | IC50 (Factor XIa; [2]) [µM] | IC50 (human plasma kallikrein) [nM] | Ki (Factor XIa) [µM] | IC50 (Factor XIa; [3]) [µM]
Nc1ccc(-c2cnc([C@@H]3CCc4c5c(cc(=O)n43)-c3c(ccc(Cl)c3F)CC3(CC3)N(CCO)C5=O)[nH]2)c(F)n1 (single isomer, unassigned) [Compound 9, (S*)-12-(5-(6-amino-2-fluoropyridin-3-yl)-1H-imidazol-2-yl)-7-chloro-8-fluoro-2-(2-hydroxyethyl)-13,14-dihydro-2H-spiro[benzo[5,6]azocino[4,3-g]indolizine-3,1′-cyclopropane]-1,10(4H,12H)-dione] | 3.29 | 6.58 | > 10000 | – | –
Nc1ccc(-c2cnc([C@H]3CCc4c5c(cc(=O)n43)-c3c(ccc(Cl)c3F)CC3(CC3)N(CCO)C5=O)[nH]2)c(F)n1 (single isomer, unassigned) [Compound 10, (R*)-12-(5-(6-amino-2-fluoropyridin-3-yl)-1H-imidazol-2-yl)-7-chloro-8-fluoro-2-(2-hydroxyethyl)-13,14-dihydro-2H-spiro[benzo[5,6]azocino[4,3-g]indolizine-3,1′-cyclopropane]-1,10(4H,12H)-dione] | – | 1.85 | > 10000 | 0.926 | –
Nc1ccc(-c2cnc([C@@H]3CCc4c5c(cc(=O)n43)-c3c(ccc(Cl)c3F)CC3(CC3)N(CCO)C5=O)[nH]2)c(F)n1 (single isomer, unassigned) [Compound 11, (S*)-12-(5-(6-amino-2-fluoropyridin-3-yl)-1H-imidazol-2-yl)-7-chloro-8-fluoro-2-(2-hydroxyethyl)-13,14-dihydro-2H-spiro[benzo[5,6]azocino[4,3-g]indolizine-3,1′-cyclopropane]-1,10(4H,12H)-dione] | – | 1.17 | > 10000 | 0.588 | –
Nc1ccc(-c2cnc([C@H]3CCc4c5c(cc(=O)n43)-c3c(ccc(Cl)c3F)CC3(CC3)N(CCO)C5=O)[nH]2)c(F)n1 (single isomer, unassigned) [Compound 12, (R*)-12-(5-(6-amino-2-fluoropyridin-3-yl)-1H-imidazol-2-yl)-7-chloro-8-fluoro-2-(2-hydroxyethyl)-13,14-dihydro-2H-spiro[benzo[5,6]azocino[4,3-g]indolizine-3,1′-cyclopropane]-1,10(4H,12H)-dione] | – | – | > 10000 | 0.0346 | 0.0692

The remaining lines, values ahead:

Ki (Factor XIa; [1]) [µM] | IC50 (Factor XIa; [2]) [µM] | IC50 (human plasma kallikrein) [nM] | Ki (Factor XIa) [µM] | IC50 (Factor XIa; [3]) [µM] | SMILES
– | – | 70 | 0.001 | 0.002 | O=C1NC2(CC2)Cc2ccc(Cl)c(F)c2-c2cc(=O)n3c(c21)CC[C@H]3c1ncc(-c2ccc3[nH]ccc3c2)[nH]1 (single isomer, unassigned) [Compound 13, (S*)-12-(5-(1H-indol-5-yl)-1H-imidazol-2-yl)-7-chloro-8-fluoro-13,14-dihydro-2H-spiro[benzo[5,6]azocino[4,3-g]indolizine-3,1′-cyclopropane]-1,10(4H,12H)-dione]
1.02 | 2.03 | > 10000 | – | – | O=C1NC2(CC2)Cc2ccc(Cl)c(F)c2-c2cc(=O)n3c(c21)CC[C@@H]3c1ncc(-c2ccc3[nH]ccc3c2)[nH]1 (single isomer, unassigned) [Compound 14, (R*)-12-(5-(1H-indol-5-yl)-1H-imidazol-2-yl)-7-chloro-8-fluoro-13,14-dihydro-2H-spiro[benzo[5,6]azocino[4,3-g]indolizine-3,1′-cyclopropane]-1,10(4H,12H)-dione]
– | 1.07 | > 10000 | 0.535 | – | O=C1NC2(CC2)Cc2ccc(Cl)c(F)c2-c2cc(=O)n3c(c21)CC[C@H]3c1ncc(-c2ccc3[nH]ccc3c2)[nH]1 (single isomer, unassigned) [Compound 16, (S*)-12-(5-(1H-indol-5-yl)-1H-imidazol-2-yl)-7-chloro-8-fluoro-13,14-dihydro-2H-spiro[benzo[5,6]azocino[4,3-g]indolizine-3,1′-cyclopropane]-1,10(4H,12H)-dione]
– | 1.59 | > 10000 | 0.796 | – | O=C1NC2(CC2)Cc2ccc(Cl)c(F)c2-c2cc(=O)n3c(c21)CC[C@@H]3c1ncc(-c2ccc3[nH]ccc3c2)[nH]1 (single isomer, unassigned) [Compound 17, (R*)-12-(5-(1H-indol-5-yl)-1H-imidazol-2-yl)-7-chloro-8-fluoro-13,14-dihydro-2H-spiro[benzo[5,6]azocino[4,3-g]indolizine-3,1′-cyclopropane]-1,10(4H,12H)-dione]
3.83 | 7.65 | > 10000 | – | – | CC1(C)Cc2ccc(Cl)c(F)c2-c2cc(=O)n3c(c2C(=O)N1)CC[C@H]3c1ncc(-c2ccc(N)nc2F)[nH]1 (single isomer, unassigned) [Compound 20, (S*)-12-(5-(6-amino-2-fluoropyridin-3-yl)-1H-imidazol-2-yl)-7-chloro-8-fluoro-3,3-dimethyl-3,4,13,14-tetrahydrobenzo[5,6]azocino[4,3-g]indolizine-1,10(2H,12H)-dione]

Source: patent publication US11897880B2, “7,8-dihydrobenzo[e]pyrido[3,4-c]azocine-2,5(3H,6H)-dione derivatives useful as a factor XIa inhibitors” (Janssen Pharmaceutica NV, priority 2021, dated 2024)
